Measured values reported in article PMC8154581, “Discovery of Novel Thiophene-arylamide Derivatives as DprE1 Inhibitors with Potent Antimycobacterial Activities” (Journal of Medicinal Chemistry, 2021).
≈ marks a conversion by molar mass, not a printed value. Read-outs that look alike come from different tables or passages of the source.

How the values were obtained:
[1] = tested on: M. tuberculosis H37Rv; test: MIC against replicating M. tuberculosis H37Rv, microplate Alamar blue assay (MABA); format: cell-based; conditions: Mycobacterium tuberculosis, H37RV
[2] = tested on: M. tuberculosis; design: method as in PMID 19299584, PMID 24500695; conditions: antimycobacterial activity; cited from earlier work
[3] = in vitro; conditions: human, hepatocytes
[4] = in vitro; conditions: male, mouse, hepatocytes
[5] = molecular target: Mt-DprE1 (Mycobacterium tuberculosis, UniProt P9WJF1); format: biochemical, M. tuberculosis
Chain of Mt-DprE1 (P9WJF1 whole entry, looked up): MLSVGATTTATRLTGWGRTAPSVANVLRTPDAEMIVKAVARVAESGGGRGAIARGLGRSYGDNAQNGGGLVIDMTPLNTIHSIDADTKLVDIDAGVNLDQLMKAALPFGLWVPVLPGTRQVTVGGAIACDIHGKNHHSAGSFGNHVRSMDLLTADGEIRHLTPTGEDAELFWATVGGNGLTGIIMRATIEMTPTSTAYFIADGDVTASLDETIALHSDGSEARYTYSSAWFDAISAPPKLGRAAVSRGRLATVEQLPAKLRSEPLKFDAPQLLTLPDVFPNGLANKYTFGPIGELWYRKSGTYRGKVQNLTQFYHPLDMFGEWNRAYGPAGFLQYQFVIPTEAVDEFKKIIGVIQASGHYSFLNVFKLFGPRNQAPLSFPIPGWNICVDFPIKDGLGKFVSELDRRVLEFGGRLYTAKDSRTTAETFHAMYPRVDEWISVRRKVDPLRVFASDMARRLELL

[6] = tested on: Vero cells; test: Cytotoxicity assay in Vero cells (MTT); format: cell-based; conditions: Chlorocebus sabaeus, Vero, 48 h, read-out: IC50 (Vero)
[7] = molecular target: hERG K+ channel (Homo sapiens, UniProt Q12809); test: Inhibition of the hERG K+ channel, electrophysiology
Chain of hERG K+ channel (Q12809 whole entry): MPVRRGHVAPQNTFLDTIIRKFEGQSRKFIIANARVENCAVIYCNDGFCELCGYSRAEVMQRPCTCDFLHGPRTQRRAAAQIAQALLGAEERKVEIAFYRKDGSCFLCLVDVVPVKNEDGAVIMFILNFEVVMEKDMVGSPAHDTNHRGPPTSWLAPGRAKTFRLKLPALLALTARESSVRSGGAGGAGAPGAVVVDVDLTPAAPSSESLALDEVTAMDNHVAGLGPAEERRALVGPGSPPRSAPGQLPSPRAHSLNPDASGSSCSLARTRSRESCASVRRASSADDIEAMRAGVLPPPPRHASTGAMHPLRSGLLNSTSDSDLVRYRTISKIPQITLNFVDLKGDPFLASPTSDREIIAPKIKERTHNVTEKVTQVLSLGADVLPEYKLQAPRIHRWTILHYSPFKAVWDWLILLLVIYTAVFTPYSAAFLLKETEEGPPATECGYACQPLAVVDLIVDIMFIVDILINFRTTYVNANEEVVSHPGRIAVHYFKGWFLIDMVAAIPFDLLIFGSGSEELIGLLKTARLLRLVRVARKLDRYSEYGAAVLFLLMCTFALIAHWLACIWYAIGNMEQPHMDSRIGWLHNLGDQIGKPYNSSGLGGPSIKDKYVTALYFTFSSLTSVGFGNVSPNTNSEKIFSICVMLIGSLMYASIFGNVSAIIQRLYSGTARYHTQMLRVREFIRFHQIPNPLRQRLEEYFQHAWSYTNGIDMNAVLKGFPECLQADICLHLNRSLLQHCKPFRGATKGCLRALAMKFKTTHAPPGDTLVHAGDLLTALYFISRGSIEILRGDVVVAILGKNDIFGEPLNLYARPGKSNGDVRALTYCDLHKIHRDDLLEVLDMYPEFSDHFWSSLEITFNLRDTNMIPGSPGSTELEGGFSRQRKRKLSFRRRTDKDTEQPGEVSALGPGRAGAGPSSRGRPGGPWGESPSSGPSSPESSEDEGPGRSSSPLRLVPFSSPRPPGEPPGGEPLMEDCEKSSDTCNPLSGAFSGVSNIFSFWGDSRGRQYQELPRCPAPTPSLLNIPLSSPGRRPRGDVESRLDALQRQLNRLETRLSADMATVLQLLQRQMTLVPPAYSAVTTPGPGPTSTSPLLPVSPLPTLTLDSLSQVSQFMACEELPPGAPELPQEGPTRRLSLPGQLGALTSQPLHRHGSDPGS

[8] = in vitro; conditions: human

Row | Structure (SMILES) | MIC ([1]; Table 4, read-out: MIC H37Rv) | MICs [2] | MIC ([1]; against M. tuberculosis H37Rv, Tables 1-3, read-out: MIC) | MIC ([1]; supplementary CSV, same values as Tables 1-3, read-out: Minimal inhibit concentration) | half-life at 1 µM [3] | remaining at 0.5 h, 1 µM [3] | half-life at 1 µM [4] | remaining at 0.5 h, 1 µM [4] | IC50 DprE1 [5] | IC50 [6] | melting point | IC50 [7] | IC50 [8]
1 | O=c1nc(N2CCN(CC3CCCCC3)CC2)sc2c([N+](=O)[O-])cc(C(F)(F)F)cc12 [PBTZ169] | 0.0001 mg/L (≈ 0.000219 µM) | < 0.016 µg/mL | – | – | – | – | – | – | – | – | – | – | –
2 | CCOC(=O)NC(=O)c1ccsc1NC(=O)c1ccc(C(=O)N2CCCCC2)s1 [Compound 24j, Ethyl (2-(5-(Piperidine-1-carbonyl)thiophene-2-carboxamido)thiophene-3-carbonyl)carbamate] | 0.059 mg/L (≈ 0.135 µM) | – | 0.14 mg/L (≈ 0.321 µM) | 0.14 mg/L (≈ 0.321 µM) | 72.5 min | 75.1% | 19.3 min | 34% | 0.3 ± 0.1 mg/L (≈ 0.689 µM) | > 64 mg/L | 175 to 176 °C | 28.3 µM | > 64 mg/L
